From BindingDB's records for doi:10.1016/j.bmcl.2013.01.064 (Bristol Myers Squibb, 2013)

Target: Potassium voltage-gated channel subfamily A member 5 (Homo sapiens, UniProt P22460)
Experiment: Antagonist activity at human Kv1.5 expressed in mouse L929 cells assessed as inhibition of delayed rectifier repolarization current by patch clamp assay

Chain of Potassium voltage-gated channel subfamily A member 5 (P22460 whole entry): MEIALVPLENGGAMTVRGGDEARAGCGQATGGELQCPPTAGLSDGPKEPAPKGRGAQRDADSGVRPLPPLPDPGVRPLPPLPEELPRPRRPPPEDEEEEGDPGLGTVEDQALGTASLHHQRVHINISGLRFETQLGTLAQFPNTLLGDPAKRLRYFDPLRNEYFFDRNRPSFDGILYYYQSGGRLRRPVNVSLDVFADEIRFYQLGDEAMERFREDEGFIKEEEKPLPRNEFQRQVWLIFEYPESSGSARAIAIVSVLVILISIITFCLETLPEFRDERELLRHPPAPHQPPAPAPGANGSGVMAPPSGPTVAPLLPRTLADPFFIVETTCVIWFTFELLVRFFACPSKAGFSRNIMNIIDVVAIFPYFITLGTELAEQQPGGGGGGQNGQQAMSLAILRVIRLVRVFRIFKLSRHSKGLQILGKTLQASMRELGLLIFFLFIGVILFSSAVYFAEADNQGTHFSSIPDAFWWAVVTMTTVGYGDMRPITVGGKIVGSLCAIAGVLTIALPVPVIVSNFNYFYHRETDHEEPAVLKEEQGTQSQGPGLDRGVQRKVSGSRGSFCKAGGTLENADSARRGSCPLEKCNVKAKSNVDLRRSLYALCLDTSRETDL

Compared with `CC1=Nc2cc(C(F)(F)F)nn2[C@H](c2ccc(Cl)c(Cl)c2)C1c1ncnn1C1CCC(C(F)(F)F)CC1` (stereo partly drawn), `CCOc1cccc(-n2ncnc2C2C(C)=Nc3cc(C(F)(F)F)nn3[C@@H]2c2ccc(Cl)c(Cl)c2)n1` (stereo partly drawn) is 2.7-fold lower in IC50: 0.607 µM for the first, 0.223 µM for the second.

`CC1=Nc2ccnn2[C@H](c2ccc(Cl)c(Cl)c2)C1c1ncnn1C(C)(C)C` (stereo partly drawn) gave an IC50 of 0.223 µM.
